Laboratory results reported in article PMC10424185, “C-2 Thiophenyl Tryptophan Trimers Inhibit Cellular Entry of SARS-CoV-2 through Interaction with the Viral Spike (S) Protein” (Journal of Medicinal Chemistry, 2023).
Entries after “also recorded” stand apart in the source; their conditions may differ. Where two headings read alike, the source gives them in different places.

Columns and labels:
in vitro [1] = conditions: human
in vitro [2] = conditions: African green monkey
[3] = molecular target: binding of human ACE2 catalytic domain to RBD (Severe acute respiratory syndrome coronavirus 2, UniProt P0DTC2); design: species or system SARS-CoV-2 / human
[4] = system: VSV-S (pseudotyped VSV carrying the S protein of Wuhan-Hu-1 SARS-CoV-2); experiment: microbe, parasite or virus in culture; type: cell-based; conditions: Vesicular stomatitis virus, read-out: IC50 (concentration at which virus infection is reduced by 50%), VSV-S in A549-ACE2-TMPRSS2 cells
[5] = system: VSV-S (pseudotyped VSV carrying the S protein of Wuhan-Hu-1 SARS-CoV-2); experiment: microbe, parasite or virus in culture; type: cell-based
[6] = system: VSV-G (VSV pseudotyped with its native glycoprotein); type: cell-based, vesicular stomatitis virus
VSV-SWuhan-Hu-1 = experiment: microbe, parasite or virus in culture; type: cell-based, SARS-CoV-2; conditions: Vesicular stomatitis virus, VeroE6/TMPRSS2, read-out: IC50 ± SD, pseudotyped VSV carrying S of Wuhan-Hu-1
[7] = system: VSV-SOmicron (S protein of SARS-CoV-2 Omicron BA.1); experiment: organism not typed; type: cell-based
SARS-CoV-2 RBD [8] = molecular target: T1, SARS-CoV-2 RBD (Severe acute respiratory syndrome coronavirus 2, UniProt P0DTC2); type: binding
SARS-CoV-2 RBD [9] = molecular target: T1, SARS-CoV-2 RBD; experiment: biochemical; type: binding
[10] = Vesicular stomatitis virus, Vero C1008, read-out: IC50 (concentration at which virus infection is reduced by 50%), VSV-S in Vero E6 cells
[11] = read-out: IC50 (concentration at which virus infection is reduced by 50%), VSV-S in Vero E6 cells
[12] = read-out: IC50 ± SD, pseudotyped VSV carrying S of Omicron BA.1
[13] = VeroE6/TMPRSS2, read-out: IC50 ± SD, pseudotyped VSV carrying S of Omicron BA.1

| Compound | CC50 (in vitro [1]) [µM] | CC50 (in vitro [2]) [µM] | increase of ACE2 concentrations needed for binding to the RBD [3] [fold] | IC50 [4] [µM] | infection (viral GFP reporter) when compound added one-hour post virus addition [5] | infection (viral GFP reporter) when compound added together with the virus [5] | primary HTS screening result (in words) [5] | IC50 [5, 10] [µM] | IC50 ([5]; Vesicular stomatitis virus, Vero C1008, read-out: IC50, compound preincubated with the cells) [µM] | IC50 ([5]; Vesicular stomatitis virus, Vero C1008, read-out: IC50, compound preincubated with the virus) [µM] | IC50 [5, 11] [µM] | antiviral activity against VSV-G [6] | IC50 (VSV-SWuhan-Hu-1) [µM] | IC50 [7, 12] [µM] | effect on thermofluor fluorescence profile / thermal stability of RBD (in words) (SARS-CoV-2 RBD [8]) | antiviral activity in the VSV-S assay (in words) [5] | Kd (SARS-CoV-2 RBD [9]) [µM] | IC50 [7, 13] [µM] |
| --- | --- | --- | --- | --- | --- | --- | --- | --- | --- | --- | --- | --- | --- | --- | --- | --- | --- | --- |
| NCC(=O)NC(CCC(=O)NC(Cc1c(Sc2ccc([N+](=O)[O-])cc2)[nH]c2ccccc12)C(=O)O)(CCC(=O)NC(Cc1c(Sc2ccc([N+](=O)[O-])cc2)[nH]c2ccccc12)C(=O)O)CCC(=O)NC(Cc1c(Sc2ccc([N+](=O)[O-])cc2)[nH]c2ccccc12)C(=O)O (stereo not drawn) [Compound 2] | > 100 | > 100 | ~10 | 1 ± 0.4 | no decrease in infection | strong reduction in infection | significant antiviral activity in the absence of cytotoxicity | 0.64 ± 0.47 | 0.32 | 0.48 | 0.6 ± 0.5 | no antiviral activity | 0.08 ± 0.07 | 21.7 ± 0.83 | shift of the curve toward lower temperatures | – | – | – |
| CS(=O)(=O)c1ccc(Sc2[nH]c3ccccc3c2CC(NC(=O)CCC(CCC(=O)NC(Cc2c(Sc3ccc(S(C)(=O)=O)cc3)[nH]c3ccccc23)C(=O)O)(CCC(=O)NC(Cc2c(Sc3ccc(S(C)(=O)=O)cc3)[nH]c3ccccc23)C(=O)O)NC(=O)CN)C(=O)O)cc1 (stereo not drawn) [Compound 42] | – | > 100 | – | – | – | – | – | > 50 | – | – | – | – | – | – | did not cause any change in the curve; also recorded: no effect on the thermal stability of the RBD | no antiviral activity | ≥ 2500 | – |
| NCCOCCOCCC(=O)NCC(=O)NC(CCC(=O)NC(Cc1c(Sc2ccc([N+](=O)[O-])cc2)[nH]c2ccccc12)C(=O)O)(CCC(=O)NC(Cc1c(Sc2ccc([N+](=O)[O-])cc2)[nH]c2ccccc12)C(=O)O)CCC(=O)NC(Cc1c(Sc2ccc([N+](=O)[O-])cc2)[nH]c2ccccc12)C(=O)O (stereo not drawn) [Compound 63] | > 100 | > 100 | – | 1.4 ± 1.1 | – | – | – | 0.7 ± 0.9 | – | – | – | – | 0.01 | – | – | – | – | 25.4 |
| O=C(CCOCCOCCOCCOCCC(=O)NCC(=O)NC(CCC(=O)NC(Cc1c(Sc2ccc([N+](=O)[O-])cc2)[nH]c2ccccc12)C(=O)O)(CCC(=O)NC(Cc1c(Sc2ccc([N+](=O)[O-])cc2)[nH]c2ccccc12)C(=O)O)CCC(=O)NC(Cc1c(Sc2ccc([N+](=O)[O-])cc2)[nH]c2ccccc12)C(=O)O)NCC(=O)NC(CCC(=O)NC(Cc1c(Sc2ccc([N+](=O)[O-])cc2)[nH]c2ccccc12)C(=O)O)(CCC(=O)NC(Cc1c(Sc2ccc([N+](=O)[O-])cc2)[nH]c2ccccc12)C(=O)O)CCC(=O)NC(Cc1c(Sc2ccc([N+](=O)[O-])cc2)[nH]c2ccccc12)C(=O)O (stereo not drawn) [Compound 65] | > 100 | > 100 | ~10 | 15.8 ± 1.5 | – | – | – | 0.28 ± 0.23 | – | – | 0.3 ± 0.2 | – | 0.28 ± 0.23 | < 10 | shift of the curve toward lower temperatures | – | – | 6.24 ± 0.16 |
